# In patent US20260241046A1, “PROSTATE-SPECIFIC MEMBRANE ANTIGEN RECEPTOR-TARGETING RADIOPHARMACEUTICALS AND USES THEREOF” (Nuclidium AG, priority 2024, published 2026):
# Columns and labels:
# [1] = Storage of lyophilized precursor; type: physicochemical; conditions: lyophilized powder, kept at 25° C. for up to 14 days
# CD-1 mice = test: Extended single-dose toxicity study (GLP); type: in vivo
# Description: (§1) The study was designed as an extended single-dose toxicity study in one rodent species and performed under GLP conditions. NODAGA-PSMA I&T toxicity was evaluated after intravenous administration on day 1 of the study, followed by an observation period of 2 weeks. 60 (30 males and 30 females) CD-1 mice were divided into one dose group and one control group. The test item was administered once by i.v. administration into the tail vein. In each of the two groups, (I) 10 male and 10 female animals were euthanized the day after dosing, (II) 5 male and 5 female recovery animals were kept for an observation period of 2 weeks after dosing to detect possible delayed occurrence or persistence of, or recovery from toxic effects.
# (§2) The dose animals' group was injected with 5 mg/kg NODAGA-PSMA I&T in 5% dimethyl sulfoxide (application volume 5 mL/kg) as a vehicle. The control group underwent injection of the vehicle alone (5 mL/kg). The animals were observed daily for signs of toxicity and morbidity/mortality. All animals were sacrificed for necropsy. Blood was taken at the time of necropsies to analyze hematological and clinical biochemistry parameters and urine for urinalysis. The wet weight of a tissue subset was taken, and a set of organs/tissues was preserved. A complete histopathological evaluation of the tissues was performed on treated and control animals.
# [2] = Extended single-dose toxicity study (GLP); type: in vivo; conditions: both sexes, mouse, in vivo, iv, 5 mg/kg; single i.v. dose, CD-1 mice; read-out: no adverse effect level (NOAEL)
# Description: as §1, §2
# [3] = approved PET radiotracers, for comparison; cited from earlier work
# [4] = Pharmacokinetics in healthy mice; type: in vivo
# Description: The pharmacokinetics of the investigated radiopharmaceutical was evaluated in healthy female BALB/c mice from 1 to 24 hours. For the latest time points (12 and 24 hours), NODAGA-PSMA I&T was radiolabeled with ^64Cu obtained from the Tübingen University Hospital. The use of a different PET copper isotope is justified by the longer half-life of ^64Cu (t1/2=12.7 hours), which is more appropriate for tests that include delayed time points. Additionally, using an isotope from the same element ensures that the radiopharmaceutical retains its chemical and physical properties, guaranteeing consistency in the study. Mice were injected i.v. with 4 MBq (200 pmol) of [^61/64Cu]Cu-NODAGA-PSMA I&T diluted to 100 μL with saline solution. The data were combined with the results obtained from the groups of xenografts at 1 and 4 hours post-injection, as the biodistribution in nude mice was the same as in the healthy mice. The results are presented in Table 27 and are expressed as mean±standard deviation.
# PSMA = molecular target: T1, PSMA (Homo sapiens, UniProt Q04609); test: Binding affinity (IC50), competition with [^125I]I-BAKuE on LNCaP cells; conditions: 0.2 nM [^125I]I-BAKuE, 1 hour on ice
# T1 construct: endogenous in cells; host or cells: LNCaP
# Description: The binding affinity of NODAGA-PSMA I&T was determined by measuring IC50 by labelling the precursor with natural copper (^natCu). […] The radioiodinated ((S)-1-carboxy-5-(4-(-^125I-iodo-benzamido) pentyl) carbamoyl)-L-glutamic acid ([^125I]I-BAKuE) was used as reference radioligand. The assay was performed on LNCaP cells, human prostate cancer cells characterized by high expression levels of PSMA.
# ^natCu-NODAGA-PSMA I&T was produced by dissolving NODAGA-PSMA I&T (0.7 μmol) in 0.30 mL of ammonium acetate (0.5 M, pH 8), followed by the addition of 0.15 mL CuCl2 in 0.05 M hydrochloric acid. The reaction mixture was incubated for 15 min at 95° C. The product was purified from unlabeled ^natCu using a SepPak Classic C18 cartridge (Waters, Eschborn, Germany), washed with water, and eluted with 2 mL methanol. After evaporation of methanol, the product was reconstituted in 0.3 mg/mL 30% (v/v) acetonitrile in water.
# The assay was performed on LNCaP cells seeded in 24-well plates. The cells were incubated with increasing concentrations of ^natCu-NODAGA-PSMA I&T (ranging from 0.1 up to 100 nM) in the presence of 0.2 nM [^125]I-BAKuE. After 1 hour of incubation on ice, the unbound (free) [^125I]I-BAKuE was collected by removing the medium (EMEM EBS) and the cells were detached with 1 M sodium hydroxide for counting (bound radioligand). […]
# [5] = 5 mg/kg i.v., CD-1 mice, transitory, non-adverse
# [6] = 12 hours post-injection (^64Cu)
# [7] = 24 hours post-injection (^64Cu)
# T1 sequence (Q04609 whole entry): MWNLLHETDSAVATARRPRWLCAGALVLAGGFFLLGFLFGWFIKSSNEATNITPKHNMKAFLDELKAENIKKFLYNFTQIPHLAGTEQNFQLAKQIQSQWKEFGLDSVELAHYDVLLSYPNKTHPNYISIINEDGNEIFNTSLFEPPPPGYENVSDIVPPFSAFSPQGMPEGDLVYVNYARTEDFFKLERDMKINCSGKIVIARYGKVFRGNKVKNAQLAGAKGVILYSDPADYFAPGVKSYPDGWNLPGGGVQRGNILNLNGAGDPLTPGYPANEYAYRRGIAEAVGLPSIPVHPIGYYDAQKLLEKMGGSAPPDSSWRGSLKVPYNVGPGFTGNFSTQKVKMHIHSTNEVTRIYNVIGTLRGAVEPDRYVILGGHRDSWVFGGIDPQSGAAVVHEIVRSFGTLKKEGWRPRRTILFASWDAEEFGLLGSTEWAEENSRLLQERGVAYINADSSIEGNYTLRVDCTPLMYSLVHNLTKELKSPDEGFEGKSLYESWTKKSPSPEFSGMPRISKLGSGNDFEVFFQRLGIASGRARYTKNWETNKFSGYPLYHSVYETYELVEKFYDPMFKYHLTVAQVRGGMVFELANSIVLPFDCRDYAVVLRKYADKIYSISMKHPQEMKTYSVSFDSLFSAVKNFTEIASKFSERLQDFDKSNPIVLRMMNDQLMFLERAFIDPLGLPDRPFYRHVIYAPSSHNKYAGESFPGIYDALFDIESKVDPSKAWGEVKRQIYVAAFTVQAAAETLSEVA
smiles,measurement,setting,value
"O=C(O)CC[C@H](NC(=O)N[C@@H](CCCCNC(=O)CCCCCCC(=O)NCCCC[C@@H](NC(=O)[C@@H](Cc1ccccc1)NC(=O)[C@@H](Cc1ccc(O)c(I)c1)NC(=O)CC[C@H](C(=O)O)N1CCN(CC(=O)O)CCN(CC(=O)O)CC1)C(=O)O)C(=O)O)C(=O)O [NODAGA-PSMA I&T, NODAGA-(I-y) fk (Sub-KuE)]",degradation on storage,[1],no signs of degradation
same,clinical tolerance,"CD-1 mice; 5 mg/kg i.v., CD-1 mice",clinically well-tolerated
same,effects on body weight gain or food consumption,"CD-1 mice; 5 mg/kg i.v., CD-1 mice",No effects on body weight gain or food consumption were noted
same,effects on organ weights,"CD-1 mice; 5 mg/kg i.v., CD-1 mice",No adverse effects on organ weights were noted
same,macroscopic or microscopic findings,"CD-1 mice; 5 mg/kg i.v., CD-1 mice",No macroscopic or microscopic findings that could be attributed to treatment
same,treatment-related mortality or acute adverse effect,"CD-1 mice; 5 mg/kg i.v., CD-1 mice",no treatment-related mortality or acute adverse effect was registered
same,glucose level,CD-1 mice; [5],decrease in glucose level
same,platelet count,CD-1 mice; [5],decrease in platelet count
same,potassium level,CD-1 mice; [5],increase in potassium level
same,safety ratio,"CD-1 mice; versus intended average patient dose 0.4 μg/kg, with dose conversion factor",1000 times
same,NOAEL at 2 weeks,[2],5 mg/kg
O=C(O)CC[C@H](NC(=O)N[C@@H](CCCCNC(=O)c1ccc([18F])nc1)C(=O)O)C(=O)O [Pylarify],Effective Dose,[3],0.017 mSv/MBq
O=C([O-])CN1CCN(CC(=O)[O-])CCN([C@H](CCC(=O)N[C@H](Cc2ccc(O)c(I)c2)C(=O)N[C@H](Cc2ccccc2)C(=O)N[C@H](CCCCNC(=O)CCCCCCC(=O)NCCCC[C@H](NC(=O)N[C@@H](CCC(=O)O)C(=O)O)C(=O)O)C(=O)O)C(=O)O)CC1.[Cu+2] [[^61/64Cu]Cu-NODAGA-PSMA I&T],"Biodistribution healthy mice, Adrenal",[4]; 1 hour post-injection,14.38 ± 4.39 % AI/g
same,"Biodistribution healthy mice, Blood",[4]; 1 hour post-injection,0.33 ± 0.09 % AI/g
same,"Biodistribution healthy mice, Femur",[4]; 1 hour post-injection,2.48 ± 0.97 % AI/g
same,"Biodistribution healthy mice, Heart",[4]; 1 hour post-injection,0.49 ± 0.12 % AI/g
same,"Biodistribution healthy mice, Intestine",[4]; 1 hour post-injection,2.11 ± 0.85 % AI/g
same,"Biodistribution healthy mice, Kidneys",[4]; 1 hour post-injection,124 ± 21 % AI/g
same,"Biodistribution healthy mice, Liver",[4]; 1 hour post-injection,1.12 ± 0.25 % AI/g
same,"Biodistribution healthy mice, Lung",[4]; 1 hour post-injection,1.49 ± 0.45 % AI/g
same,"Biodistribution healthy mice, Muscles",[4]; 1 hour post-injection,0.99 ± 0.30 % AI/g
same,"Biodistribution healthy mice, Pancreas",[4]; 1 hour post-injection,1.37 ± 0.90 % AI/g
same,"Biodistribution healthy mice, Salivary glands",[4]; 1 hour post-injection,1.89 ± 0.28 % AI/g
same,"Biodistribution healthy mice, Spleen",[4]; 1 hour post-injection,9.33 ± 3.81 % AI/g
same,"Biodistribution healthy mice, Stomach",[4]; 1 hour post-injection,1.12 ± 0.15 % AI/g
same,"Biodistribution healthy mice, Adrenal",[4]; 4 hours post-injection,7.31 ± 2.76 % AI/g
same,"Biodistribution healthy mice, Blood",[4]; 4 hours post-injection,0.11 ± 0.03 % AI/g
same,"Biodistribution healthy mice, Femur",[4]; 4 hours post-injection,1.34 ± 0.38 % AI/g
same,"Biodistribution healthy mice, Heart",[4]; 4 hours post-injection,0.25 ± 0.06 % AI/g
same,"Biodistribution healthy mice, Intestine",[4]; 4 hours post-injection,1.12 ± 0.48 % AI/g
same,"Biodistribution healthy mice, Kidneys",[4]; 4 hours post-injection,94 ± 12 % AI/g
same,"Biodistribution healthy mice, Liver",[4]; 4 hours post-injection,0.88 ± 0.25 % AI/g
same,"Biodistribution healthy mice, Lung",[4]; 4 hours post-injection,0.68 ± 0.22 % AI/g
same,"Biodistribution healthy mice, Muscles",[4]; 4 hours post-injection,0.45 ± 0.18 % AI/g
same,"Biodistribution healthy mice, Pancreas",[4]; 4 hours post-injection,0.55 ± 0.16 % AI/g
same,"Biodistribution healthy mice, Salivary glands",[4]; 4 hours post-injection,0.58 ± 0.12 % AI/g
same,"Biodistribution healthy mice, Spleen",[4]; 4 hours post-injection,2.35 ± 1.45 % AI/g
same,"Biodistribution healthy mice, Stomach",[4]; 4 hours post-injection,0.72 ± 0.15 % AI/g
same,"Biodistribution healthy mice, Adrenal",[4]; [6],2.99 ± 0.93 % AI/g
same,"Biodistribution healthy mice, Blood",[4]; [6],0.11 ± 0.01 % AI/g
same,"Biodistribution healthy mice, Femur",[4]; [6],0.50 ± 0.10 % AI/g
same,"Biodistribution healthy mice, Heart",[4]; [6],0.26 ± 0.05 % AI/g
same,"Biodistribution healthy mice, Intestine",[4]; [6],0.94 ± 0.41 % AI/g
same,"Biodistribution healthy mice, Kidneys",[4]; [6],60 ± 9 % AI/g
same,"Biodistribution healthy mice, Liver",[4]; [6],0.96 ± 0.18 % AI/g
same,"Biodistribution healthy mice, Lung",[4]; [6],0.52 ± 0.11 % AI/g
same,"Biodistribution healthy mice, Muscles",[4]; [6],0.25 ± 0.05 % AI/g
same,"Biodistribution healthy mice, Pancreas",[4]; [6],0.28 ± 0.04 % AI/g
same,"Biodistribution healthy mice, Salivary glands",[4]; [6],0.39 ± 0.05 % AI/g
same,"Biodistribution healthy mice, Spleen",[4]; [6],1.40 ± 0.57 % AI/g
same,"Biodistribution healthy mice, Stomach",[4]; [6],0.52 ± 0.03 % AI/g
same,accumulated activity in the kidneys,[4]; 24 hours post-injection,< 20 % IA/g
same,"Biodistribution healthy mice, Adrenal",[4]; [7],1.17 ± 0.22 % AI/g
same,"Biodistribution healthy mice, Blood",[4]; [7],0.08 ± 0.01 % AI/g
same,"Biodistribution healthy mice, Femur",[4]; [7],0.20 ± 0.05 % AI/g
same,"Biodistribution healthy mice, Heart",[4]; [7],0.21 ± 0.02 % AI/g
same,"Biodistribution healthy mice, Intestine",[4]; [7],0.46 ± 0.11 % AI/g
same,"Biodistribution healthy mice, Kidneys",[4]; [7],16.1 ± 4.9 % AI/g
same,"Biodistribution healthy mice, Liver",[4]; [7],0.84 ± 0.11 % AI/g
same,"Biodistribution healthy mice, Lung",[4]; [7],0.32 ± 0.12 % AI/g
same,"Biodistribution healthy mice, Muscles",[4]; [7],0.08 ± 0.02 % AI/g
same,"Biodistribution healthy mice, Pancreas",[4]; [7],0.17 ± 0.03 % AI/g
same,"Biodistribution healthy mice, Salivary glands",[4]; [7],0.22 ± 0.05 % AI/g
same,"Biodistribution healthy mice, Spleen",[4]; [7],0.58 ± 0.15 % AI/g
same,"Biodistribution healthy mice, Stomach",[4]; [7],0.31 ± 0.05 % AI/g
O=C([O-])CN(CCN(CC(=O)[O-])Cc1cc(CCC(=O)NCCCCCC(=O)NCCCC[C@H](NC(=O)N[C@@H](CCC(=O)O)C(=O)O)C(=O)O)ccc1[O-])Cc1cc(CCC(=O)O)ccc1[O-].[68Ga+3].[OH3+] [[^68Ga]Ga-PSMA-11],Effective Dose,[3],0.023 mSv/MBq
O=C(O)CC[C@H](NC(=O)N[C@@H](CCCCNC(=O)CCCCCCC(=O)NCCCC[C@@H](NC(=O)[C@@H](Cc1ccccc1)NC(=O)[C@@H](Cc1ccc(O)c(I)c1)NC(=O)CC[C@H](C(=O)O)N1CCN2CCN(CC1)CC(=O)[O][Cu][O]C(=O)C2)C(=O)O)C(=O)O)C(=O)O [^natCu-NODAGA-PSMA I&T],IC50,PSMA,9.3 ± 1.8 nM
